Assay results reported in patent publication US20240376094A2, “SELECTIVE BCL-XL PROTAC COMPOUNDS AND METHODS OF USE” (Les Laboratoires Servier, priority 2021, published 2024).

Assays:
Type in all cases: cell-based
Bcl-xL = molecular target: T1, Bcl-xL (Homo sapiens, UniProt Q07817); test: HCT116 Bcl-xL degradation, capillary-based immunoassay (WES); conditions: for DC50: HCT116, 24 h, 9-point serial dilution; for remaining activity at 0.01 µM / remaining activity at 0.1 µM: HCT-116, 24 h, % of untreated cells; for remaining activity at 0.01 µM: HCT116, 10 nM; for remaining activity at 0.1 µM: HCT116, 100 nM
T1 construct: Measured levels of Bcl-xL protein of HCT116 cells treated with the tested compounds; host or cells: HCT116
Outline: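 HCT116 cells treated 24 h with compound at 10/100 nM and/or 9-point dilution (quadruplicates), then lysed. Bcl-xL measured by capillary WES immunoassay, normalized to cofilin and expressed as % of untreated cells. DC50 from four-parameter curve fit.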

[1] = tested on: EBC-1 lung cancer cell line; test: EBC-1 cell proliferation, CellTiter-Glo assay; conditions: Homo sapiens, 120 h; Ebc-1 cell viability, CTG assay, 5 days of treatment; read-out: CTG 5 day Ebc1 GI50
Outline: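 EBC-1 cells seeded at 1000 per well overnight, then exposed to 10-point dilutions (0.508 nM–10 μM final) for 5 days at 37 °C, in triplicate. ATP luminescence by CellTiter-Glo, normalised to untreated wells; GI50 from four-parameter logistic fit, runs valid only with at least one doubling.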

HiBiT-tagged BCL-xL = molecular target: T2, HiBiT-tagged BCL-xL (Homo sapiens, UniProt Q07817); test: NCI-H1650 BCL-xL protein levels, Nano-Glo HiBiT Lytic Detection; conditions: NCI-H1650 expressing HiBiT-tagged BCL-xL, overnight incubation, read-out: Bcl-xl HIBIT NCIH1650 DC50
T2 construct: expressed in transfected cells; host or cells: NCI-H1650 (ATCC No. CRL-5883), engineered HiBiT cell line
Outline: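 NCI-H1650 cells expressing HiBiT-tagged BCL-xL (5000/well) were treated overnight at 37° C with 10 concentrations, final 0.508 nM-10 μM, in triplicate. Remaining BCL-xL measured by Nano-Glo HiBiT lytic luminescence, normalized to untreated cells; 50% values by four-parameter logistic fit.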

T2 sequence (Q07817 whole entry): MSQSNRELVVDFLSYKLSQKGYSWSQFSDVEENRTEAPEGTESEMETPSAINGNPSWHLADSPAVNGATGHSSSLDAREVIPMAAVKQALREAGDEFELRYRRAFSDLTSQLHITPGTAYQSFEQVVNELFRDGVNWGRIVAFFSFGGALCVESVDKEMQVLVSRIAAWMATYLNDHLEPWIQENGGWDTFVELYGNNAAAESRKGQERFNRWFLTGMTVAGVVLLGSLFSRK
T1 sequence (Q07817 whole entry): as above

DC50 (Bcl-xL) [nM]	remaining activity at 0.01 µM (Bcl-xL) [%]	remaining activity at 0.1 µM (Bcl-xL) [%]	GI50 [1] [nM]	DC50 (HiBiT-tagged BCL-xL) [nM]	Structure (SMILES)
0.329	21	9	5	1	Cc1ncsc1-c1ccc([C@H](C)NC(=O)[C@@H]2C[C@@H](O)CN2C(=O)[C@@H](NC(=O)CCCCCCCCCCCCCCCN(C)CCOC23CC4(C)CC(C)(CC(Cn5ncc(-c6ccc(N7CCCc8c7nnc(Nc7nc9ccccc9s7)c8C)nc6C(=O)O)c5C)(C4)C2)C3)C(C)(C)C)cc1 [Example 1, 6-[3-(1,3-benzothiazol-2-ylamino)-4-methyl-6,7-dihydro-5H-pyrido[2,3-c]pyridazin-8-yl]-3-[1-[[3-[2-[[16-[[(1S)-1-[(2S,4R)-4-hydroxy-2-[[(1S)-1-[4-(4-methylthiazol-5-yl)phenyl]ethyl]carbamoyl]pyrrolidine-1-carbonyl]-2,2-dimethyl-propyl]amino]-16-oxo-hexadecyl]-methyl-amino]ethoxy]-5,7-dimethyl-1-adamantyl]methyl]-5-methyl-pyrazol-4-yl]pyridine-2-carboxylic acid]
2.45	54	19	23	2	Cc1ncsc1-c1ccc([C@H](C)NC(=O)[C@@H]2C[C@@H](O)CN2C(=O)[C@@H](NC(=O)CCCCCCCCN(C)CCOC23CC4(C)CC(C)(CC(Cn5ncc(-c6ccc(N7CCCc8c7nnc(Nc7nc9ccccc9s7)c8C)nc6C(=O)O)c5C)(C4)C2)C3)C(C)(C)C)cc1 [Example 5, 6-[3-(1,3-benzothiazol-2-ylamino)-4-methyl-6,7-dihydro-5H-pyrido[2,3-c]pyridazin-8-yl]-3-[1-[[3-[2-[[9-[[(1S)-1-[(2S,4R)-4-hydroxy-2-[[(1S)-1-[4-(4-methylthiazol-5-yl)phenyl]ethyl]carbamoyl]pyrrolidine-1-carbonyl]-2,2-dimethyl-propyl]amino]-9-oxo-nonyl]-methyl-amino]ethoxy]-5,7-dimethyl-1-adamantyl]methyl]-5-methyl-pyrazol-4-yl]pyridine-2-carboxylic acid]
2.94	69	22	13	3	Cc1ncsc1-c1ccc([C@H](C)NC(=O)[C@@H]2C[C@@H](O)CN2C(=O)[C@@H](NC(=O)CCCCCCCN(C)CCOC23CC4(C)CC(C)(CC(Cn5ncc(-c6ccc(N7CCCc8c7nnc(Nc7nc9ccccc9s7)c8C)nc6C(=O)O)c5C)(C4)C2)C3)C(C)(C)C)cc1 [Example 6, 6-[3-(1,3-benzothiazol-2-ylamino)-4-methyl-6,7-dihydro-5H-pyrido[2,3-c]pyridazin-8-yl]-3-[1-[[3-[2-[[8-[[(1S)-1-[(2S,4R)-4-hydroxy-2-[[(1S)-1-[4-(4-methylthiazol-5-yl)phenyl]ethyl]carbamoyl]pyrrolidine-1-carbonyl]-2,2-dimethyl-propyl]amino]-8-oxo-octyl]-methyl-amino]ethoxy]-5,7-dimethyl-1-adamantyl]methyl]-5-methyl-pyrazol-4-yl]pyridine-2-carboxylic acid]
